Test results reported in patent publication US12461089B2, “Olfactory receptor involved in the perception of musk fragrance and the use thereof” (ChemoSensoryX Biosciences SA, priority 2017, dated 2025).
Residue numbers refer to the chain shown, from its start.

How the values were obtained:
Format in all cases: cell-based
OR5A2_variant 1 = target: T1, OR5A2_variant 1 (Homo sapiens, UniProt Q8NGI9); assay: Luciferase reporter concentration-response analysis on OR5A2_variant 1; settings: for activation of OR5A2 (OR5A2_variant 1), concentration-response: CRE-luciferase, semi-logarithmic serial dilutions, empty vector pEFIBRHO as control
T1 construct: expressed in transfected cells; host or cells: HEK293T-RTP1A1/RTP2
T1 sequence (Q8NGI9 1-324): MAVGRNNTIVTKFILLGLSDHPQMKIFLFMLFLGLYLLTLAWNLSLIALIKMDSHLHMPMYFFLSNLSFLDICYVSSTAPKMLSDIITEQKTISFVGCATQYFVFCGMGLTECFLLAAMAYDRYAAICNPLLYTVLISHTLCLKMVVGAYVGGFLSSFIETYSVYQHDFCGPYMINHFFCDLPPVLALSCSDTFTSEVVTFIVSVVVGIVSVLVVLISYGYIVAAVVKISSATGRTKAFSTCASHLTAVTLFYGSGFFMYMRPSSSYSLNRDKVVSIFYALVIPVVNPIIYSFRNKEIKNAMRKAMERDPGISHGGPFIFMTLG
Procedure: (§1) HEK293T-RTP1A1/RTP2 cells were maintained in minimal essential medium (EMEM, Lonza) containing 10% fetal bovine serum (M10). These cells were generated by transfecting HEK293T with an expression vector containing the sequences of the chaperone proteins RTP1A1 and RTP2 and a resistance gene to puromycin, using Lipofectamine 2000.
(§2) Odorant molecules were diluted at a concentration of 1 mole/liter (M) into dimethyl sulfoxide (DMSO) to generate stock solutions.
(§3) For concentration-response analysis, serial dilutions of the tested molecules were prepared from stock solutions in EMEM plated into 96-well plates.
(§4) For the initial deorphanisation screening and dose-response analysis, a Luciferase-based gene reporter assay (Promega, Leiden, The Nederlands) was used. Briefly, cells were platted on Poly-D-lysine-coated 96-well and transfected with a plasmid containing the CRE-luciferase and a plasmid containing the olfactory receptor. Sixteen hours after transfection, the culture medium was replaced by serum-free EMEM containing the tested compounds at a determined concentration. After four hours of incubation at 37° C. degree, cells were lysed and processed for luminescence measurement. Luminescene emission was recorded. Results were expressed as luciferase activity (Relative […] Unit (RLU)) or as percentage of the response induced by 10 μM of the adenylate cyclase activator Forskolin. An empty plasmid is used as negative control.
(§5) 35 musk compounds from the four structurally different chemical groups previously described were tested in concentration-response analyses (Table 2). In each experiment, an empty vector was used as negative control (pEFIBRHO). […] Full results including the calculated EC50 are given in Table 2; “non active” represent negative experiments, no activation after testing.

OR5A1 = target: T2, OR5A1 (Homo sapiens, UniProt Q8NGJ0); assay: Luciferase reporter concentration-response analysis on OR5A1; settings: CRE-luciferase; empty vector pEFIBRHO as control
T2 construct: expressed in transfected cells; host or cells: HEK293T-RTP1A1/RTP2
T2 sequence (Q8NGJ0 1-315): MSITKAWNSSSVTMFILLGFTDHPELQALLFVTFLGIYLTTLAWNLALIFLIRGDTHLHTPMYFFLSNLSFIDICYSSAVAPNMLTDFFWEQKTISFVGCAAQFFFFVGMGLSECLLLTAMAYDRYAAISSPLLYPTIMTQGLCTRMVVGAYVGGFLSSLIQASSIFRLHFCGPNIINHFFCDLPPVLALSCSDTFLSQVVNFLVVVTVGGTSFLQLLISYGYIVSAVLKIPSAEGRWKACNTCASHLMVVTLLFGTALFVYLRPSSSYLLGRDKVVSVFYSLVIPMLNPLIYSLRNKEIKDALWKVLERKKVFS
Procedure: as §1, with “2000. The recombinant cell population, used in these experiments, was selected by adding 10 μg/ml of puromycin into the culture medium and subsequently subcloned (WO 2014/191047 A1).” for “2000.”
as §2, §3
as §4, with “Briefly, cells were platted on Poly-D-lysine-coated 96-well and transfected with a plasmid containing the CRE-luciferase and a plasmid containing the olfactory receptor.” left out, “An empty plasmid is used as negative control.” left out

OR5AN1 = target: T3, OR5AN1 (Homo sapiens, UniProt Q8NGI8, E89G); assay: Luciferase reporter concentration-response analysis on OR5AN1; settings: CRE-luciferase; empty vector pEFIBRHO as control
T3 construct: expressed in transfected cells; host or cells: HEK293T-RTP1A1/RTP2
T3 sequence (Q8NGI8 1-311 E89G): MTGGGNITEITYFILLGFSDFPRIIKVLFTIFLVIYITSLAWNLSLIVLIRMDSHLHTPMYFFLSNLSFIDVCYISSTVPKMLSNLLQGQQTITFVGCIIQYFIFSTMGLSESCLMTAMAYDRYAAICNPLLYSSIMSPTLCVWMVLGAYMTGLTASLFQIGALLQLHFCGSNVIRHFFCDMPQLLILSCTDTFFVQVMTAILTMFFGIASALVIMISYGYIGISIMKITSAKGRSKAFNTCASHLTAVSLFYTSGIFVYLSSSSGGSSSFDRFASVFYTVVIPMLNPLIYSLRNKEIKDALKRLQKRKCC
Procedure: as §1, with “2000. The recombinant cell population, used in these experiments, was selected by adding 10 μg/ml of puromycin into the culture medium and subsequently subcloned (WO 2014/191047 A1).” for “2000.”
as §2, §3, §4
In these analyses we also included ORs previously described as musk-specific receptors OR5AN1 (SEQ ID n° 7) (WO 2015/020158 A1, Shirasu et al. 2014 Neuron 81, 165-78, Sato-Akuhara N et al. 2016 J Neurosci. 36(16), 4482-91) and OR11A1 (SEQ ID n° 8) (WO 2016/201152 A1). […] Therefore, OR5A1 was included in the analyses. 35 musk compounds from the four structurally different chemical groups previously described were tested in concentration-response analyses (Table 2). In each experiment, an empty vector was used as negative control (pEFIBRHO). […] Full results including the calculated EC50 are given in Table 2; “non active” represent negative experiments, no activation after testing. […]

OR11A1 = target: T4, OR11A1 (Homo sapiens, UniProt Q9GZK7); assay: Luciferase reporter concentration-response analysis on OR11A1
T4 construct: expressed in transfected cells; host or cells: HEK293T-RTP1A1/RTP2
T4 sequence (Q9GZK7 1-315): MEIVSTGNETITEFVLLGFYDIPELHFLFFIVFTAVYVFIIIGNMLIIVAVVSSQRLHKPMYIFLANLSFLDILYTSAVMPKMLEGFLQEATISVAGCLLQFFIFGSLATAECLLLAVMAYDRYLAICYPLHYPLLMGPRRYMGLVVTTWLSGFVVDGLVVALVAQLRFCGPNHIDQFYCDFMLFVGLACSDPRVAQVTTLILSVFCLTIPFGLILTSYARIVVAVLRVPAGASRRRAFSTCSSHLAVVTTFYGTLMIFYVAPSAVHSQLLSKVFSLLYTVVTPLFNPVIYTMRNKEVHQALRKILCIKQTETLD
Procedure: as §1, §2, §3, §4, §5
These compounds were tested in concentration-response analysis in luciferase assays, as described previously. In each experiment, an empty vector was used as negative control (pEFIBRHO).

chimeric OR5A2_variant 1 = target: T5, chimeric OR5A2_variant 1 (Homo sapiens, UniProt Q8NGI9, F293L/H55R/I289L/M58T); assay: Luciferase reporter concentration-response analysis on chimeric OR5A2_variant 1; settings: CRE-luciferase, empty vector pEFIBRHO as control
T5 construct: expressed in transfected cells; host or cells: HEK293T-RTP1A1/RTP2
T5 sequence (Q8NGI9 with tags, fused parts or gaps H55R/M58T/I289L/F293L): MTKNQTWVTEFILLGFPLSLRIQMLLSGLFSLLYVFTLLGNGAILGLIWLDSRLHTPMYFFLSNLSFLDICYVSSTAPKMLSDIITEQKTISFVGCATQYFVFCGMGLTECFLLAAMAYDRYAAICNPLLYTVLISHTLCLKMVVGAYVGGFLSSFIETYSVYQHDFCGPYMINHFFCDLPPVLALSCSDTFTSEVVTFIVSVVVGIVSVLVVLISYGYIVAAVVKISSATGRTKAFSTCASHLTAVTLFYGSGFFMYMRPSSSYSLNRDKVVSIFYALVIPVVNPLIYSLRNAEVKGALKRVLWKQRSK
Procedure: as §1, §2, §3, §4
(§6) To test if the amino acids substitution could impact the musk sensitivity, and specificity and to validate the Krautwurst's model, luciferase assays were performed as described previously after transfection of the chimeric OR5A2_variant 1. Cells were treated with semi-logarithmic serial dilutions of musk compounds from the four structurally different groups described earlier.
In each experiment, an empty vector was used as negative control (pEFIBRHO).

OR5A2_variant 2 = target: T6, OR5A2_variant 2 (Homo sapiens, UniProt Q8NGI9, P172L); assay: Luciferase reporter concentration-response analysis on haplotype OR5A2_variant 2 (P172L); settings: CRE-luciferase; empty vector pEFIBRHO as control
T6 construct: (P172L, OR5A2_variant 2); expressed in transfected cells; host or cells: HEK293T-RTP1A1/RTP2
T6 sequence (Q8NGI9 1-324 P172L): T1 sequence (Q8NGI9 1-324) with P172L
Procedure: as §1, §2, §3, §4
OR genes are highly variable, with many alleles resulting in differences in smell perception from person to person. These differences can be attributed to genetic variations like, for example, nucleotide polymorphisms. […] Amino acids alignment of the 2 haplotypes are represented in FIG. 4.
To test if the substitution could impact the musk sensitivity, luciferase assays were performed as described previously after transfection of both OR5A2 variants. Cells were treated with semi-logarithmic serial dilutions of musk compounds from the four structurally different groups described earlier. In each experiment, an empty vector was used as negative control (pEFIBRHO).

OR2A5 = target: T7, OR2A5 (Homo sapiens, UniProt Q96R48, A202S/A255T/I126V); assay: Luciferase reporter concentration-response analysis on OR2A5; settings: CRE-luciferase
T7 construct: expressed in transfected cells; host or cells: HEK293T-RTP1A1/RTP2
T7 sequence (Q96R48 1-311 I126V/A202S/A255T): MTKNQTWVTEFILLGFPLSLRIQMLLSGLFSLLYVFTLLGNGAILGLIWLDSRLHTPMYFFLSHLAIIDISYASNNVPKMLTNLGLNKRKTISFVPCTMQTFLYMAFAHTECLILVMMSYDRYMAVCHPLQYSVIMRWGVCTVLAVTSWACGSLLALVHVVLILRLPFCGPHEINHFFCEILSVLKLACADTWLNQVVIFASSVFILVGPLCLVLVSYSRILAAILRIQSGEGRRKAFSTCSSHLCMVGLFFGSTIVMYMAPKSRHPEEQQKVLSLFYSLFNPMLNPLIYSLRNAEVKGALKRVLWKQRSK
Procedure: as §1, with “2000. The recombinant cell population, used in these experiments, was selected by adding 10 μg/ml of puromycin into the culture medium and subsequently subcloned (WO 2014/191047 A1).” for “2000.”
as §2, §3, §4
In 1998, Krautwurst and collaborators have provided a model system for the study of ligand specificity and structure-function relationships for olfactory receptors (Krautwurst et al., 1998 Cell 95, 917-26). […] Based on their publication, a chimeric OR5A2_variant 1 olfactory receptor was created containing the TM2-TM7 amino acid sequence of OR5A2_variant 1 flanked by the N-teminal and C-terminal sequence of the olfactory receptor OR2A5 (cf. SEQ ID NO: 12). This chimeric OR5A2_variant 1 receptor shared 86 percent identity with the native OR5A2_variant 1 receptor (FIG. 6A and SEQ ID NO: 10).
as §6

EC50 (OR5A2_variant 1; concentration-response analysis, luciferase reporter, values given as negative (log) numbers, read-out: calculated EC50, OR5A2 (converted)) [µM]	EC50 (OR11A1; concentration-response analysis, luciferase reporter, values given as negative (log) numbers, Non Active = no activation after testing, read-out: calculated EC50, OR11A1 (converted)) [µM]	activation of OR5A2_variant 2 (P172L), concentration-response (OR5A2_variant 2)	activation of OR2A5, concentration-response (OR2A5)	SMILES	activation of OR5A2 (OR5A2_variant 1), concentration-response (OR5A2_variant 1)	activation of OR5A1, concentration-response (OR5A1)	activation of OR5AN1, concentration-response (OR5AN1)	activation of OR11A1, concentration-response (OR11A1; CRE-luciferase, empty vector pEFIBRHO as control)	activation of chimeric OR5A2_variant 1, concentration-response (chimeric OR5A2_variant 1)	activation of chimeric OR5A2_variant 1, concentration-response (chimeric OR5A2_variant 1; listed as ethyl-fenchol)
–	–	–	–	CCC1(O)C2(C)CCC(C2)C1(C)C (stereo not drawn) [2 ethyl-fenchol]	stimulated neither	able to activate OR11A1 only	stimulated neither	able to activate OR11A1 only	not activated	not able to activate
17.8	21.4	not activated	but not the OR2A5	CC1C(C)(C)C2=C(C(=O)CCC2)C1(C)C (stereo not drawn) [Cashmeran]	shows dose response curves	–	–	–	shows dose response curves	–
